According to patent US9399631B2, “Polyphenol proteasome inhibitors, synthesis, and methods of use” (UNIVERSITY OF SOUTH FLORIDA, priority 2003, dated 2016):

How the values were obtained:
Jurkat T cells = test: Flow cytometry cell cycle analysis, Jurkat T cells; assay type: cell-based, human; settings: 24 hours
Experimental: (§1) Flow Cytometry. Cell cycle analysis based on DNA content was performed as in An et al. (An, B. et al. Cell Death Differ, 1998, 5:1062-75). At each time point, cells were harvested, counted, and washed twice with PBS. Cells (5×10^6) were suspended in 0.5 ml PBS, fixed in 5 ml of 70% ethanol overnight at −20° C., centrifuged, resuspended again in 1 ml of propidium iodide staining solution (50 μg propidium iodide, 100 units RNase A and 1 mg glucose per ml PBS), and incubated at room temperature for 30 minutes. The cells were then analyzed with FACScan (Becton Dickinson Immunocytometry, Calif.), ModFit LT and WinMDI V.2.8 cell cycle analysis software (Verity Software; Topsham, Me.). The cell cycle distribution is shown as the percentage of cells containing G1, S, G2, and M phase DNA judged by propidium iodide staining The apoptotic population is determined as the percentage of cells with sub-G1 DNA content (<G1).
Previous studies have shown that overexpression of p27 (Pagano, M. et al. Science, 1995, 269:682-685), IκB-α (Verma, I. M. et al. Genes Dev, 1995, 9:2723-2735), and Bax (Li, B. and Dou, Q. P. Proc Natl Acad Sci USA, 2000, 97:3850-3855) results in G1 arrest or apoptosis. If increased levels of these proteasome target proteins by the synthetic EGCG analogs are functional, growth inhibition of tumor cells would be expected. […] The G1 population was indeed increased by 26% and 9% by treatment with GTP-4 and GTP-5, respectively (FIG. 11).

purified 20S proteasome [1] = target: T1, purified 20S proteasome (UniProt G1T4Q9); test: Inhibition of chymotrypsin-like activity of purified 20S proteasome (source not stated); assay type: biochemical; settings: chymotrypsin-like activity of purified 20S proteasome
T1 construct: IC50; other: chymotrypsin-like activity of purified 20S proteasome
Experimental: (§2) Inhibition of purified 20S proteasome activity by natural or synthetic GTPs. Purified prokaryotic (0.5 μg) or eukaryotic (0.02 μg) 20S proteasome was incubated with 20 μM fluorogenic peptide substrate, Suc-Leu-Leu-Val-Tyr-AMC for 30 min at 37° C. in […] of assay buffer (50 mM Tris-HCl, pH 7.5), with or without a natural or synthetic tea polyphenol. After incubation, production of hydrolyzed 7-amido-4-methyl-coumarin (AMC) groups was measured using a multi-well plate VERSAFLUOR Fluorometer with an excitation filter of 380 nm and an emission filter of 460 nm (BIO-RAD), and a multi-well plate reader Wallac 1420 VICTORTM^2 with an excitation filter of 355 nm and an emission filter of 460 nm (EG&G WALLAC).

LNCaP cells [2] = test: Western blot of proteasome target proteins in LNCaP cells; assay type: cell-based, human; settings: 50 μM, 3 to 12 hours
Experimental: Cell Culture, Cell Extract Preparation, and Western Blot Assay. Human leukemia Jurkat T and prostate cancer LNCaP cells were cultured in RPMI 1640 medium supplemented with 10% fetal calf serum, 100 units/ml of penicillin, and 100 μg/ml streptomycin. Human immortalized, non-transformed NK cells (YT cell line) (38) were cultured in RPMI 1640 supplemented with 1 mM MEM sodium pyruvate solution, 0.1 mM MEM non-essential amino acids solution, 10% fetal calf serum. 100 units/ml penicillin, and 100 μg/ml streptomycin. Normal (WI-38) and simian virus 40 (SV40)-transformed (VA-13) human fibroblasts were grown in Dulbecco's modified Eagle's medium supplemented with 10% fetal calf serum, 100 units/ml of penicillin and 100 μg/ml of streptomycin. All cells were maintained at 37° C. in a humidified incubator with an atmosphere of 5% CO2. A whole cell extract was prepared in accordance with An et al. (An, B. et al. Cell Death Differ, 1998, 5:1062-75). Briefly, cells were harvested, washed with PBS twice, and homogenized in a lysis buffer [50 mM Tris-HCl (pH 8.0), 5 mM EDTA, 150 mM NaCl, 0.5% NP-40, 0.5 mM phenylmethylsulfonyl fluoride, and 0.5 mM dithiothreitol] for 30 min at 4° C. Afterwards, lysates were centrifuged at 12,000×g for 15 min at 4° C., and the supernatants were collected as whole cell extracts. Equal amounts of protein extract (60 μg) were resolved by SDS-polyacrylamide gel electrophoresis and transferred to a nitrocellulose membrane using a Semi-Dry Transfer system (BIO-RAD, Hercules, Calif.). Jurkat T, LNCaP, or DU-145 cells were treated with various concentrations of synthetic or natural tea polyphenols for indicted hours. The enhanced chemiluminescence (ECL) Western blot analysis was then performed using specific antibodies to the proteins of interest (p^27kip, IκB-α, PARP, Bax or actin). The ratio of p27 or IκB-α to the corresponding actin was determined by scanning intensities of the protein bands.
To investigate whether (−)-EGCG-amide and (+)-EGCG-amide inhibit intact tumor cell proteasome activity, human prostate cancer LNCaP cells were treated with 25 μM of (−)- or (+)-EGCG-amide for up to 9 hours, followed by measurement of p27, IκB-α and Bax, three well-known proteasome target proteins (Pagano, M. et al. Science, 1995, 269:682-685; An, B. et al. Cell Death Differ, 1998, 5:1062-75; Sun, J. et al. Cancer Res, 2001, 61:1280-1284; Palombella, V. J. et al. Cell, 1994, 78:773-785; Thompson, J. E. et al. Cell, 1995, 80:573-582; Perkins, N. D. Trends Biochem Sci, 2000, 25:434-440; Chang, Y. C. et al. Cell Growth Differ, 1998, 9:79-84; Li, B. and Dou, Q. P. Proc Natl Acad Sci USA, 2000, 97:3850-3855; Nam, S. et al. Cancer Epidemiol Biomarkers Prey, 2001, 10:1083-1088). In this experiment (−)-EGCG and (+)-EGCG were used as positive controls.
Having determined that the synthetic GTP-1 to −5 analogs are able to inhibit the proteasomal chymotrypsin-like activity in vitro (FIG. 8), these compounds were investigated for their potency in inhibiting intact tumor cellular proteasome activity. To do so, human prostate cancer LNCaP cells were treated with one of these compounds for the indicated hours, followed by measuring levels of proteasome target proteins, p27, IκB-α, and Bax, and polyubiquitinated proteins.

LNCaP cells [3] = test: Flow cytometry cell cycle analysis, LNCaP cells; assay type: cell-based, human; settings: 10 μM, 24 hours
Experimental: as §1
It has been shown that overexpression of p27 and IκB-α results in G1 arrest. If increased levels of these proteasome target proteins by synthetic GTPs are functional, it would be expected to see growth arrest of tumor cells in G1 phase. To test this hypothesis, asynchronous prostate LNCaP cells were treated with 10 μM of synthetic (+)-EGCG or (+)-GCG, along with each respective natural GTP as control, for 24 hours. Cells were then harvested, and analyzed by cell cycle analysis by flow cytometry. […] Growth arrest was determined by the increase in the percentage of the G1 population.

LNCaP cells [4] = test: Soft agar colony formation assay; assay type: cell-based, human; settings: 10 μM, 14 day-incubation
Experimental: Soft Agar Assay. The soft agar assay was performed according to Smith et al. (Smith, D. M. et al. Mol Med, 2002, 8:382-392) with a few modifications. In brief, in a six-well plate, a bottom feeder layer (0.6% agar) was prepared with DMEM media containing 10% fetal bovine serum, 100 units/ml penicillin, and 100 μg/ml streptomycin. A top layer (0.3% agar) was prepared with DMEM and the same media as described above but containing 2×10^4 prostate cancer LNCaP cells and indicated analogs or DMSO as a control. Plates were incubated at 37° C. in 5% CO2 in a humidified incubator for two weeks. MTT (1 mg/ml) was added to each well and incubated overnight to allow complete formation of purple formazan crystals. The plates were then scanned and photographed, and the number of colonies was quantified by QUANTITY ONE v.4.0.3 software (Bio-Rad, Hercules, Calif.).
The […] effects of several GTP analogs were investigated with a soft agar assay that measures the transforming activity of human tumor cells. LNCaP cells were plated in soft agar (see Materials and Methods) along with 50 μM of GTP-1, -2, -3, (−)-EGCG (as a positive control; Smith, D. M. et al. Mol Med, 2002, 8:382-392, 2002), or the solvent (as a negative control), followed by a 14 day-incubation to allow for colony formation (FIGS. 12A and 12B).
In a second experiment, LNCaP cells were plated in soft agar along with 10 μM of each indicated GTP or solvent (H2O), followed by a 14 day-incubation to allow for colony formation (FIG. 21A). […] Colonies were quantified with an automated counter and presented as mean values from triplicate independent experiments. Error bars denote standard deviations.

[5] = target: T2, 20S eukaryotic proteasome (Oryctolagus cuniculus, UniProt G1T4Q9); test: Inhibition of chymotrypsin-like activity of purified eukaryotic 20S proteasome (Suc-Leu-Leu-Val-Tyr-AMC); assay type: biochemical, rabbit; settings: chymotrypsin-like activity, rabbit 20S proteasome
T2 construct: purchased BOSTON BIOCHEM (Cambridge, Mass.)
T2 sequence (G1T4Q9 1-263): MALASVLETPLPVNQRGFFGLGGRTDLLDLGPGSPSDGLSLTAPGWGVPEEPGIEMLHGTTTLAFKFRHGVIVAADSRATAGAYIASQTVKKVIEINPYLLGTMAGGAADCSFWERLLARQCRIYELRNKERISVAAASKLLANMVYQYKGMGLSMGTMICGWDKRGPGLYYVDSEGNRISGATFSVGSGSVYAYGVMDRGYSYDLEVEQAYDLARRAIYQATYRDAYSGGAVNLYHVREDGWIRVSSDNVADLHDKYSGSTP
Experimental: Materials. Highly purified tea polyphenols (−)-EGCG (>95%), (−)-GCG (>98%), (−)-ECG (>98%), (−)-CG (>98%), fetal calf serum, propidium iodide, 3-[4,5-dimethylthiazol-2-yl]-2,5-diphenyltetrazolium bromide (MTT), RNase A, and DMSO were purchased from Sigma (St. Louis, Mo.). (+)-EGCG, benzyl-protected-(+)-EGCG, (+)-GCG, (−)-EGCG-amide, and (+)-EGCG-amide were prepared by enantioselective synthesis (see below). Purified 20S eukaryotic proteasome from rabbit was purchased from BOSTON BIOCHEM (Cambridge, Mass.). Purified 20S prokaryotic proteasome (Methanosarcina thermophile, Recombinant, E. coli) was purchased from CALBIOCHEM (La Jolla, Calif.). Fluorogenic peptide substrates Suc-Leu-Leu-Val-Tyr-AMC (for the proteasomal chymotrypsin-like activity) was obtained from Calbiochem (La Jolla, Calif.). RPMI 1640 medium, Dulbecco's modified Eagle's medium, MEM non-essential amino acids solution, MEM-sodium pyruvate solution, penicillin, and streptomycin were from INVITROGEN (Carlsbad, Calif.). Monoclonal antibody to p27^Kip was purchased from PHARMINGEN (San Diego, Calif.); polyclonal antibodies to IκB-α, Bax and actin, and monoclonal antibody to ubiquitin were from SANTA CRUZ Biotechnology Inc. (Santa Cruz, Calif.).
as §2
Purified prokaryotic (0.5 μg) or eukaryotic (0.02 μg) 20S proteasome was incubated with 20 μM fluorogenic peptide substrate, Suc-Leu-Leu-Val-Tyr-AMC for 30 minutes at 37° C. in 100 μl of assay buffer ([…] Tris-HCl, pH 7.5), with or without a natural or synthetic tea polyphenol. After incubation, production of hydrolyzed AMC groups was measured using a multi-well plate VERSAFLUOR Fluorometer with an excitation filter of 380 nm and an emission filter of 460 nm.
(−)-EGCG at 1 μM was incubated with eukaryotic 20S proteasome (0.02 μg) and suc-LLVY-AMC (20 μM) for the times indicated in FIG. 7. The chymotrypsin activity was measured and graphed in FIG. 7. Values are means from 4 independent experiments, and error bars represent standard deviations.
In the second experiment (−)-EGCG at 1 μM was pre-incubated with (SDS-pre) or without 0.01% SDS (no SDS) for 1 hour, followed by addition of eukaryotic 20S proteasome (0.02 μg) and suc-LLVY-AMC (20 μM). “SDS-post” represents the same treatment as “no SDS” except 0.01% SDS was added 1 hour after addition of the proteasome, (−)-EGCG and the substrate. AMC liberation was measured by fluorescence at each indicated time point and the percentage of chymotrypsin activity was determined. Values are means from 4 independent experiments, and error bars represent standard deviations.

purified 20S proteasome [6] = test: Inhibition of chymotrypsin-like activity of purified 20S proteasome (source not stated); assay type: biochemical
Experimental: as §2

Molecule	increase of G1 population (Jurkat T cells) [%]	increase of sub-G1 DNA cell population (Jurkat T cells) [%]	IC50 (purified 20S proteasome [1]) [µM]	levels of Bax protein (LNCaP cells [2])	levels of proteasome target proteins (p27, IκB-α) (LNCaP cells [2])	inhibition of the proteasome (in words) (purified 20S proteasome [6])	further results
O=C(O[C@H]1Cc2cc(O)ccc2C[C@H]1OC(=O)c1cc(O)c(O)c(O)c1)c1cc(O)c(O)c(O)c1 [GTP-5]	9	~15	0.73	increased only at 12 hours	significant increase in levels of p27 and IκB-α		
O=C(O[C@H]1Cc2ccccc2C[C@H]1OC(=O)c1cc(O)c(O)c(O)c1)c1cc(O)c(O)c(O)c1 [GTP-4]	26	~15	0.34	increased only at 12 hours	significant increase in levels of p27 and IκB-α		
O=C(OC1Cc2c(O)cc(O)cc2OC1c1cc(O)c(O)c(O)c1)c1cc(O)c(O)c(O)c1 (single isomer, unassigned; (-)) [(−)-GCG, reference compound]							increase of G1 population (G1 arrest) (LNCaP cells [3]): ~14%; inhibition of colony formation (LNCaP cells [4]): 99%; IC50 [5]: 0.61 µM
COC(C)=O [methyl acetate, reference compound]						cannot inhibit the proteasome	
COC(=O)c1cc(O)c(O)c(O)c1 [methyl gallate, reference compound]						cannot inhibit the proteasome	
benzyl hydroxybenzoate [reference compound]						cannot inhibit the proteasome	
